Data taken from patent US20040147788A1, “Stilbene derivatives and their use as aryl hydrocarbon receptor antagonistic ligands” (priority 2002, published 2004).

How the values were obtained:
[1] = molecular target: T1, Aryl Hydrocarbon Receptor (AhR) (Oryctolagus cuniculus, UniProt O02747); experiment: Ligand binding competition assay (Aryl Hydrocarbon Receptor), [3H]TCDD displacement; set-up: species or system female New Zealand rabbit (liver cytosol); details: for AhR RBA (relative binding affinity): resveratrol = 1
T1 construct: from tissue; host or cells: female New Zealand rabbit liver cytosol
T1 sequence (O02747 1-847): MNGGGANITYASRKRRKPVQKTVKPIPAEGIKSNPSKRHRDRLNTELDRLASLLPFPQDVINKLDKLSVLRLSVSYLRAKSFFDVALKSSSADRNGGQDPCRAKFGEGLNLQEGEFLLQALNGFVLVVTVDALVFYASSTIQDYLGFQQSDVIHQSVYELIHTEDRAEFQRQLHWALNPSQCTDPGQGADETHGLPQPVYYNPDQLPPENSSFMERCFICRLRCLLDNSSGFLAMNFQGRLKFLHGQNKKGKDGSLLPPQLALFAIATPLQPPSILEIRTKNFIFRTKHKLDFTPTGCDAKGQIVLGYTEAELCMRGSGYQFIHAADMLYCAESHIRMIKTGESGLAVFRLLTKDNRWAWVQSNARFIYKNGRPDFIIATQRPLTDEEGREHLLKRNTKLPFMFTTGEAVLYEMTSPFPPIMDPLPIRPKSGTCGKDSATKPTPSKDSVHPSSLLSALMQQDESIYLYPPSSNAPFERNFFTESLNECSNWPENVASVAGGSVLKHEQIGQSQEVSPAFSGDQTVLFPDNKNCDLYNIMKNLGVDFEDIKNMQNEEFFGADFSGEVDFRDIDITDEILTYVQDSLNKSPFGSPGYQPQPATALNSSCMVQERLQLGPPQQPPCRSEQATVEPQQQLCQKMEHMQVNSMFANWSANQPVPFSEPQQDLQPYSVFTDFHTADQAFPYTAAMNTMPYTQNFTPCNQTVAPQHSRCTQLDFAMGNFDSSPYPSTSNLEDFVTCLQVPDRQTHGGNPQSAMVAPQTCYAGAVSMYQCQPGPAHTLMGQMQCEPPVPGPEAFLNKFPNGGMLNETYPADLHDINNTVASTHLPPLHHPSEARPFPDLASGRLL
Experimental: Ligand binding competition assay (Aryl Hydrocarbon Receptor)
Experiments were conducted exactly as previously described by Savouret et al., (3). Briefly, binding competition was performed using female New Zealand rabbit liver cytosol as the receptor source. The cytosol was prepared at 4° C. in Hepes 20 mM pH 7.6, EDTA 1.5 mM, glycerol 10%, β-mercapto-ethanol 10 mM, with Complete protease cocktail (Roche, Meylan, France) by homogenisation in a Ultra-Turax homogenizer (Bioblock Scientific, Illkirch, France) followed with 20 strokes in a Dounce Homogenizer with the tight pestle. The homogenate was centrifuged 30 min at 20,000 g. The supernatant was centrifuged at 105,000 g for 65 min. The cytosol was aliquoted, snap-frozen in liquid nitrogen and kept at −80° C. Cytosol aliquotes (4.5 ml) were thawed on ice, diluted ten-fold in Hepes 20 mM pH 7.6, 5 mM CaCl2, containing Complete protease cocktail and 10 mM mercapto-ethanol, and recentrifuged 30 min. at 105,000 g. The cleared cytosol dilution was adjusted to 0.85 mg proteins/ml. 930 μl of diluted cytosol were preincubated with the desired amounts of unlabeled competitors in ethanol solutions for 1 hour at 4° C. Subsequently, 2,3,7,8-tetrachloro (1,6-3 H) dibenzo-p-dioxin (28 Ci/mmole) was added at 0.2 nM and incubation continued for 3 hours at 4° C. Non-displaceable binding was assessed by incubating the aliquotes with 70 μl of a 2% activated charcoal suspension in Hepes 20 mM pH 7.6 for 90 minutes at 4° C., followed by centrifugation at 15,000 g for 10 minutes. 500 μl of the supernatants were counted in 5 ml of Ultima Gold cocktail (Packard, Meridien, Conn.) in a Beckman liquid scintillation Counter (45% counting efficiency). Binding competition assays were repeated at least twice for each competitor and each point was performed in triplicate.

[2] = molecular target: T2, Estrogen Receptors extracted from MCF-7 cells (Homo sapiens, UniProt P03372); experiment: Ligand binding competition assay (Estrogen Receptor), [3H]Estradiol
T2 construct: Estrogen Receptors extracted from MCF-7 cells; endogenous in cells; host or cells: MCF-7 (ATCC) cytosol
T2 sequence (P03372 1-595): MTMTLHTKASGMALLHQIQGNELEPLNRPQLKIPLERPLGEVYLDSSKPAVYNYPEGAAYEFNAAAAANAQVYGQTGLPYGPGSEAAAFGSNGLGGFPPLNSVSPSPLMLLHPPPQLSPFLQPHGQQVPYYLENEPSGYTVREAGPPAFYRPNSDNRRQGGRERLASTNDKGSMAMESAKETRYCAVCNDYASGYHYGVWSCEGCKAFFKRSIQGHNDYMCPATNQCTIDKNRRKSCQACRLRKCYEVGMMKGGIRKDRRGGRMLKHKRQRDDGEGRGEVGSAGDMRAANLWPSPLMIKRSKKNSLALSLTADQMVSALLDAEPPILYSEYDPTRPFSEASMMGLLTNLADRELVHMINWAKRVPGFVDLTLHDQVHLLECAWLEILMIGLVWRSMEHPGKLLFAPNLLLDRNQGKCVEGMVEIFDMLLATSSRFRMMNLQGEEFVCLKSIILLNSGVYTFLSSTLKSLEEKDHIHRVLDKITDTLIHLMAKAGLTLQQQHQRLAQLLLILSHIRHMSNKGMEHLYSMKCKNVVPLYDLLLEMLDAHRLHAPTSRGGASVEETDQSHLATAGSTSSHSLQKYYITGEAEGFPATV
Experimental: Ligand Binding Competition Assay (Estrogen Receptor)
ER binding experiments were conducted using Estrogen Receptors extracted from MCF-7 cells as previously described (4). Briefly MCF-7 (from ATCC) were grown to 80% confluency in DMEM medium (GiBCO BRL) suplemented with 10% FCS. Cells were then scraped, and washed twice with PBS. After centrifugation for 10 minutes at 1500 rpm, the cells were resuspended in TM buffer (20 mM Tris, HCl pH 7.4; sodium molybdate, 20 mM). Cells were broken by freeze-thaw lysis of the cell pellets in an equal volume of TM buffer. Cytosolic receptors were prepared by a 105.000 g×60 minutes centrifugation at 0° C., and then stored at −80° C. This cytosolic receptor solution was diluted to 60% in TM buffer, and then incubated with the corresponding ligand for 18 hr at 4° C. in a volume of 100 μl with 50 μg of protein and 2 nM of [3H]Estradiol and two concentrations (1 and 10 μM) of unlabeled test ligand. Assays were terminated by loading 65 μl of the incubate on a 1.2 ml Sephadex TM LH-20 column equilibrated with the TM buffer. The flow through was collected and counted for radioactivity in ready safe scintillant (Beckman).

Row | SMILES | AhR RBA (relative binding affinity) ([1]; cis-stilbenes) | ER RBA (relative binding affinity) ([2]; cis-stilbenes) | AhR RBA (relative binding affinity) ([1]; trans-stilbenes) | ER RBA (relative binding affinity) ([2]; trans-stilbenes) | relative binding affinity (RBA) for AhR [1] | affinity for ER [2]
1 | CCOc1ccc(/C=C\c2cc(OC)cc(OC)c2)cc1 [Compound 5g, (Z)-1-(4-ethoxyphenyl)-2-(3,5-dimethoxyphenyl)-ethene] | 2.5 | N.M | – | – | – | –
2 | COc1cc(/C=C/c2ccc(F)cc2)cc(OC)c1 [Compound 4f, (E)-1-(4-fluorophenyl)-2-(3,5-dimethoxyphenyl)-ethene] | – | – | 32.1 | N.M | – | –
3 | FC(F)(F)c1ccc(/C=C/c2cc(C(F)(F)F)cc(C(F)(F)F)c2)cc1 [Compound 4e, (E)-1-(4-trifluoromethylphenyl)-2-(3,5-ditrifluoromethylphenyl)-ethene] | – | – | 52.1 | N.M | 52.1 | without detectable affinity
4 | Clc1ccc(/C=C/c2cc(Cl)cc(Cl)c2)cc1 [Compound 4b, (E)-1-(4-chlorophenyl)-2-(3,5-dichlorophenyl)-ethene] | – | – | 130.0 | N.M | 130.0 | without detectable affinity
5 | COc1ccc(/C=C\c2cc(Cl)cc(Cl)c2)cc1 [Compound 5j, (Z)-1-(4-methoxyphenyl)-2-(3,5-dichlorophenyl)-ethene] | 13.0 | N.M | – | – | – | –
6 | COc1ccc(/C=C/c2cc(Cl)cc(Cl)c2)cc1 [Compound 4j, (E)-1-(4-methoxyphenyl)-2-(3,5-dichlorophenyl)-ethene] | – | – | 112.0 | N.M | 112.0 | without detectable affinity
7 | COc1ccc(/C=C/c2cc(OC)cc(OC)c2)cc1 [Compound 4a, (E)-1-(4-methoxyphenyl)-2-(3,5-dimethoxyphenyl)-ethene] | – | – | 21.0 | 0.03 | – | –
8 | Clc1ccc(/C=C\c2cc(Cl)cc(Cl)c2)cc1 [Compound 5b, (Z)-1-(4-chlorophenyl)-2-(3,5-dichlorophenyl)-ethene] | 12.4 | N.M | – | – | – | –
9 | FC(F)(F)c1ccc(/C=C\c2cc(Cl)cc(Cl)c2)cc1 [Compound 5i, (Z)-1-(4-trifluoromethylphenyl)-2-(3,5-dichlorophenyl)-ethene] | 10.9 | N.M | – | – | – | –
10 | Fc1ccc(/C=C/c2cc(F)cc(F)c2)cc1 [Compound 4d, (E)-1-(4-fluorophenyl)-2-(3,5-difluorophenyl)-ethene] | – | – | 39.1 | N.M | – | –
11 | FC(F)(F)c1ccc(/C=C/c2cc(Cl)cc(Cl)c2)cc1 [Compound 4i, (E)-1-(4-trifluoromethylphenyl)-2-(3,5-dichlorophenyl)-ethene] | – | – | 791.0 | N.M | – | –
12 | COc1ccc(/C=C/c2cc(F)cc(F)c2)cc1 [Compound 4c, (E)-1-(4-methoxyphenyl)-2-(3,5-difluorophenyl)-ethene] | – | – | 17.5 | N.M | – | –
13 | COc1cc(/C=C\c2ccc(F)cc2)cc(OC)c1 [Compound 5f, (Z)-1-(4-fluorophenyl)-2-(3,5-dimethoxyphenyl)-ethene] | 1.7 | N.M | – | – | – | –
14 | CCOc1ccc(/C=C/c2cc(OC)cc(OC)c2)cc1 [Compound 4g, (E)-1-(4-ethoxyphenyl)-2-(3,5-dimethoxyphenyl)-ethene] | – | – | 39.8 | N.M | – | –
15 | COc1ccc(/C=C\c2cc(OC)cc(OC)c2)cc1 [Compound 5a, (Z)-1-(4-methoxyphenyl)-2-(3,5-dimethoxyphenyl)-ethene] | 2.1 | 0.06 | – | – | – | –
16 | FC(F)(F)c1ccc(/C=C\c2cc(C(F)(F)F)cc(C(F)(F)F)c2)cc1 [Compound 5e, (Z)-1-(4-trifluoromethylphenyl)-2-(3,5-ditrifluoromethylphenyl)-ethene] | 2.7 | N.M | – | – | – | –
17 | COc1ccc(/C=C\c2cc(F)cc(F)c2)cc1 [Compound 5c, (Z)-1-(4-methoxyphenyl)-2-(3,5-difluorophenyl)-ethene] | 7.2 | N.M | – | – | – | –
18 | CCCCOc1ccc(/C=C\c2cc(OC)cc(OC)c2)cc1 [Compound 5h, (Z)-1-(4-butoxyphenyl)-2-(3,5-dimethoxyphenyl)-ethene] | 3.7 | N.M | – | – | – | –
19 | CCCCOc1ccc(/C=C/c2cc(OC)cc(OC)c2)cc1 [Compound 4h, (E)-1-(4-butoxyphenyl)-2-(3,5-dimethoxyphenyl)-ethene] | – | – | 8.1 | N.M | – | –
20 | Fc1ccc(/C=C\c2cc(F)cc(F)c2)cc1 [Compound 5d, (Z)-1-(4-fluorophenyl)-2-(3,5-difluorophenyl)-ethene] | 2.6 | N.M | – | – | – | –
